Each structure is given as a SMILES string. Bounds are passed on as bounds.

Broadly, the EC50 is the midpoint of the concentration-response curve.

The target in this assay is T1, human IL-17AA (Homo sapiens, UniProt Q16552).
T1 construct: host or cells: HEK (human embryonic kidney) cells
T1 sequence (Q16552 24-155) 1: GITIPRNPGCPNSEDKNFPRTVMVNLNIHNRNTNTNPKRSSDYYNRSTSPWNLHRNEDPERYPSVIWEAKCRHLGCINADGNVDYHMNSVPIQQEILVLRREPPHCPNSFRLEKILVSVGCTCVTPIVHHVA
T1 sequence (Q16552 24-155) 2: T1 sequence (Q16552 24-155) 1
Briefly: IL-8 release assay in human epithelial keratinocytes adult (HEKa). In kind it is cell-based. The conditions noted are these: 3 ng/ml human IL-17AA + 10 ng/ml human TNFalpha, 68-72 h, IL-8 by HTRF, read-out: Rel EC50 L-8 release assay. The method in brief: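 IL-8 secretion, quantified by HTRF (665/620 nm) as percent of controls, served as the readout after 68–72 h culture of HEKa cells with compound plus IL-17AA (3 ng/ml final) and TNF-alpha (10 ng/ml final). Four-parameter logistic curves gave relative IC50 and Emax.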

With `Cc1n[nH]c(C)c1-c1ccc(NC(=O)[C@@H](NC(=O)C2(F)CC2)[C@@H]2CCc3ccc(-c4ccnc(N5C[C@@H]6C[C@H]5CN6)c4)cc32)cc1` [Example 23, N-[(1S)-1-[(1R)-6-[2-[(1S,4S)-2,5-diazabicyclo[2.2.1]heptan-2-yl]-4-pyridyl]indan-1-yl]-2-[4-(3,5-dimethyl-1H-pyrazol-4-yl)anilino]-2-oxo-ethyl]-1-fluoro-cyclopropanecarboxamide], the EC50 is less than 100 nM.

Turning to `Cc1n[nH]cc1-c1ccc(NC(=O)[C@H](Cc2cc(-c3ccc(=O)n(C(C)C)c3)ccc2Cl)NC(=O)c2ccnn2C)cc1O` [Example 174, N-[(1S)-1-[[2-chloro-5-(1-isopropyl-6-oxo-3-pyridyl)phenyl]methyl]-2-[3-hydroxy-4-(3-methyl-1H-pyrazol-4-yl)anilino]-2-oxo-ethyl]-2-methyl-pyrazole-3-carboxamide], the EC50 was less than 100 nM.

Consider `Cc1n[nH]c(C)c1-c1ccc(NC(=O)[C@@H](NC(=O)C2(F)CC2)[C@@H]2CCc3ccc(-c4cc(N5C[C@@H]6C[C@H]5CO6)ncn4)cc32)cc1` [Example 356, N-[(1S)-2-[4-(3,5-dimethyl-1H-pyrazol-4-yl)anilino]-1-[(1R)-6-[6-[(1S,4S)-2-oxa-5-azabicyclo[2.2.1]heptan-5-yl]pyrimidin-4-yl]indan-1-yl]-2-oxo-ethyl]-1-fluoro-cyclopropanecarboxamide], for which the concentration giving a half-maximal response (EC50) was 100 to 1000 nM.

For `Cc1ncn(C)c1-c1ccc(NC(=O)[C@@H](NC(=O)C2(F)CC2)[C@@H]2CCc3ccc(-c4ccnc(N5C[C@@H]6C[C@H]5CO6)c4)cc32)cc1O` [Example 358, N-[(1S)-2-[4-(3,5-dimethylimidazol-4-yl)-3-hydroxy-anilino]-1-[(1R)-6-[2-[(1S,4S)-2-oxa-5-azabicyclo[2.2.1]heptan-5-yl]-4-pyridyl]indan-1-yl]-2-oxo-ethyl]-1-fluoro-cyclopropanecarboxamide], the EC50 is less than 100 nM.

As for `CCOc1cccc(-c2ccc(Cl)c(CC(NC(=O)c3ccnn3C)C(=O)Nc3ccc(-c4nncn4C)cc3)c2)c1` (stereo not shown) [Example 110, N-[1-[[2-chloro-5-(3-ethoxyphenyl)phenyl]methyl]-2-[4-(4-methyl-1,2,4-triazol-3-yl)anilino]-2-oxo-ethyl]-2-methyl-pyrazole-3-carboxamide], the EC50 was in the range of 100 to 1000 nM.

Turning to `CN(CC1CC1)c1cc(-c2ccc(Cl)c(CC(NC(=O)c3ccnn3C)C(=O)Nc3ccc(-c4cncn4C)cc3)c2)ccn1` (stereo not shown) [Example 153, N-[1-[[2-chloro-5-[2-[cyclopropylmethyl(methyl)amino]-4-pyridyl]phenyl]methyl]-2-[4-(3-methylimidazol-4-yl)anilino]-2-oxo-ethyl]-2-methyl-pyrazole-3-carboxamide], the EC50 is less than 100 nM.

For the compound `CC(C)n1cc(-c2ccc(Cl)c(CC(NC(=O)c3ccnn3C)C(=O)Nc3ccc(-c4ncnn4C)cc3)c2)ccc1=O` (stereo not shown) [Example 301, N-[1-[[2-chloro-5-(1-isopropyl-6-oxo-3-pyridyl)phenyl]methyl]-2-[4-(2-methyl-1,2,4-triazol-3-yl)anilino]-2-oxo-ethyl]-2-methyl-pyrazole-3-carboxamide], the EC50 was greater than 1000 nM.

Regarding `Cc1cnn(C)c1-c1ccc(NC(=O)[C@H](Cc2cc(-c3ccc(=O)n(C(C)C)c3)ccc2Cl)NC(=O)c2conc2C)cc1` [Example 118, N-[(1S)-1-[[2-chloro-5-(1-isopropyl-6-oxo-3-pyridyl)phenyl]methyl]-2-[4-(2,4-dimethylpyrazol-3-yl)anilino]-2-oxo-ethyl]-3-methyl-isoxazole-4-carboxamide], the EC50 is less than 100 nM.

For the compound `Cc1n[nH]c(C)c1-c1ccc(NC(=O)[C@H](Cc2cc(-c3ccnc(N4CCSCC4)n3)ccc2Cl)NC(=O)C2(F)CC2)cc1` [Example 314, N-[(1S)-1-[[2-chloro-5-(2-thiomorpholinopyrimidin-4-yl)phenyl]methyl]-2-[4-(3,5-dimethyl-1H-pyrazol-4-yl)anilino]-2-oxo-ethyl]-1-fluoro-cyclopropanecarboxamide], the EC50 was less than 100 nM.

Regarding `CC(C)COC(=O)N[C@@H](Cc1cc(-c2ccc(=O)n(C(C)C)c2)ccc1Cl)C(=O)Nc1ccc(-c2nncn2C)cc1` [Example 100, isobutyl N-[(1S)-1-[[2-chloro-5-(1-isopropyl-6-oxo-3-pyridyl)phenyl]methyl]-2-[4-(4-methyl-1,2,4-triazol-3-yl)anilino]-2-oxo-ethyl]carbamate], the EC50 is 100 to 1000 nM.

Consider `CC(C)Oc1cccc(-c2ccc(Cl)c(CC(NC(=O)c3ccnn3C)C(=O)Nc3ccc(-c4nncn4C)cc3)c2)c1` (stereo not shown) [Example 122, N-[1-[[2-chloro-5-(3-isopropoxyphenyl)phenyl]methyl]-2-[4-(4-methyl-1,2,4-triazol-3-yl)anilino]-2-oxo-ethyl]-2-methyl-pyrazole-3-carboxamide], for which the EC50 fell in the range of 100 to 1000 nM.

Turning to `Cc1noc(C)c1-c1ccc(NC(=O)C(Cc2cc(-c3ccc(=O)n(C(C)C)c3)ccc2Cl)NC(=O)c2ccnn2C)cc1` (stereo not shown) [Example 93, N-[1-[[2-chloro-5-(1-isopropyl-6-oxo-3-pyridyl)phenyl]methyl]-2-[4-(3,5-dimethylisoxazol-4-yl)anilino]-2-oxo-ethyl]-2-methyl-pyrazole-3-carboxamide], the EC50 was in the range of 100 to 1000 nM.

As to `CC(C)Cn1cc(-c2ccc(Cl)c(C[C@H](NC(=O)OC3CC3)C(=O)Nc3ccc(-c4cncn4C)cc3)c2)nn1` [Example 214, cyclopropyl N-[(1S)-1-[[2-chloro-5-(1-isobutyltriazol-4-yl)phenyl]methyl]-2-[4-(3-methylimidazol-4-yl)anilino]-2-oxo-ethyl]carbamate], the EC50 was greater than 1000 nM.

Take `Cc1n[nH]c(C)c1-c1ccc(NC(=O)[C@@H](NC(=O)C2(F)CC2)[C@@H]2CCc3ccc(-c4ccnc(N5CCNCC5)c4)cc32)cc1` [Example 9, N-[(1S)-2-[4-(3,5-dimethyl-1H-pyrazol-4-yl)anilino]-2-oxo-1-[(1R)-6-(2-piperazin-1-yl-4-pyridyl)indan-1-yl]ethyl]-1-fluoro-cyclopropanecarboxamide]: the EC50 is less than 100 nM.

Turning to `CC(C)n1cc(-c2ccc(Cl)c(C[C@H](NC(=O)[C@@H]3CC3(F)F)C(=O)Nc3ccc(-c4nncn4C)cc3)c2)ccc1=O` [Example 287, (1S)-N-[(1S)-1-[[2-chloro-5-(1-isopropyl-6-oxo-3-pyridyl)phenyl]methyl]-2-[4-(4-methyl-1,2,4-triazol-3-yl)anilino]-2-oxo-ethyl]-2,2-difluoro-cyclopropanecarboxamide], the EC50 is greater than 1000 nM.

As to `Cn1cncc1-c1ccc(NC(=O)[C@@H](NC(=O)C2(F)CC2)[C@@H]2CCCc3ccc(-c4ccnc(N5C[C@H]6C[C@@H]5CO6)c4)cc32)cc1O` [Example 404, 1-fluoro-N-[(1S)-2-[3-hydroxy-4-(3-methylimidazol-4-yl)anilino]-1-[(1R)-7-[2-[(1R,4R)-2-oxa-5-azabicyclo[2.2.1]heptan-5-yl]-4-pyridyl]tetralin-1-yl]-2-oxo-ethyl]cyclopropanecarboxamide], the EC50 was greater than 1000 nM.

With `C[C@H]1CN(c2cc(-c3ccc(Cl)c(C[C@H](NC(=O)c4ccnn4C)C(=O)Nc4ccc(-c5cncn5C)cc4)c3)ccn2)CCN1` [Example 209, N-[(1S)-1-[[2-chloro-5-[2-[(3S)-3-methylpiperazin-1-yl]-4-pyridyl]phenyl]methyl]-2-[4-(3-methylimidazol-4-yl)anilino]-2-oxo-ethyl]-2-methyl-pyrazole-3-carboxamide], the EC50 was in the range of 100 to 1000 nM.

Take `CC(C)c1cc(-c2ccc(Cl)c(CC(NC(=O)c3ccnn3C)C(=O)Nc3ccc(-c4nncn4C4CC4)cc3)c2)ccn1` (stereo not shown) [Example 74, N-[1-[[2-chloro-5-(2-isopropyl-4-pyridyl)phenyl]methyl]-2-[4-(4-cyclopropyl-1,2,4-triazol-3-yl)anilino]-2-oxo-ethyl]-2-methyl-pyrazole-3-carboxamide]: the EC50 is 100 to 1000 nM.

Regarding `CC(C)n1cc(-c2ccc(Cl)c(CC(NC(=O)C(F)(F)c3ccccc3)C(=O)Nc3ccc(-c4nncn4C)cc3)c2)ccc1=O` (stereo not shown) [Example 97, 3-[2-chloro-5-(1-isopropyl-6-oxo-3-pyridyl)phenyl]-2-[(2,2-difluoro-2-phenyl-acetyl)amino]-N-[4-(4-methyl-1,2,4-triazol-3-yl)phenyl]propanamide], the EC50 was greater than 1000 nM.

Turning to `Cc1n[nH]c(C)c1-c1ccc(NC(=O)[C@@H](NC(=O)C2(F)CC2)[C@@H]2CCc3ccc(-c4cnnc(C5CC5)c4)cc32)cc1` [Example 381, N-[(1S)-1-[(1R)-6-(6-cyclopropylpyridazin-4-yl)indan-1-yl]-2-[4-(3,5-dimethyl-1H-pyrazol-4-yl)anilino]-2-oxo-ethyl]-1-fluoro-cyclopropanecarboxamide], the EC50 lay within 100 to 1000 nM.

For `CC(C)n1cc(-c2ccc(Cl)c(CC(NC(=O)OC(C)(C)C)C(=O)Nc3ccc(-c4cncn4C)c(Cl)c3)c2)ccc1=O` (stereo not shown) [Example 101, tert-butyl N-[1-[[2-chloro-5-(1-isopropyl-6-oxo-3-pyridyl)phenyl]methyl]-2-[3-chloro-4-(3-methylimidazol-4-yl)anilino]-2-oxo-ethyl]carbamate], the EC50 is greater than 1000 nM.

As for `CC(C)n1cc(-c2cccc(C(c3ccccc3)C(NC(=O)c3ccnn3C)C(=O)Nc3ccc(-c4cncn4C)cc3)c2)ccc1=O` (single isomer, unassigned; diastereomer 2) [Example 232, N-[1-[[3-(1-isopropyl-6-oxo-3-pyridyl)phenyl]-phenyl-methyl]-2-[4-(3-methylimidazol-4-yl)anilino]-2-oxo-ethyl]-2-methyl-pyrazole-3-carboxamide (Diastereomer 2)], the EC50 was greater than 1000 nM.

The record behind these values is patent US20220162191A1, “SMALL MOLECULE MODULATORS OF IL-17” (LEO PHARMA A/S, priority 2019, published 2022).
